Measurements as given in ChEMBL document CHEMBL5108020, “Design and synthesis of novel benzimidazole derivatives as potential Pseudomonas aeruginosa anti-biofilm agents inhibiting LasR: Evidence from comprehensive molecular dynamics simulation and in vitro investigation” (Eur J Med Chem, 2022).

Tests used:
[1] = target: T1, Transcriptional activator protein LasR (Pseudomonas aeruginosa (strain ATCC 15692 / PAO1 / 1C / PRS 101 / LMG12228), UniProt P25084); experiment: Inhibition of Pseudomonas aeruginosa PAO1 LasR
T1 sequence (P25084 whole entry): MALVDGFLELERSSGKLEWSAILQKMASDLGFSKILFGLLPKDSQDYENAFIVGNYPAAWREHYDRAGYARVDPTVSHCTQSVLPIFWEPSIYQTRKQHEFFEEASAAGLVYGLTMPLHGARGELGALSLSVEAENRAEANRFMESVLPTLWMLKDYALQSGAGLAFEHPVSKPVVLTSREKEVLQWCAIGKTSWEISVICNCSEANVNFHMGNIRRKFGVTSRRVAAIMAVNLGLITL

[2] = target: T1, Transcriptional activator protein LasR; experiment: Inhibition of Pseudomonas aeruginosa PAO-JP2 LasR co-transfected with LVAgfp reporter assessed as inhibition of GFP production by fluorescence based analysis
[3] = target: T2, HTH-type quorum-sensing regulator RhlR (Pseudomonas aeruginosa (strain ATCC 15692 / PAO1 / 1C / PRS 101 / LMG12228), UniProt P54292); experiment: Inhibition of Pseudomonas aeruginosa PAO1 RhlR
T2 sequence (P54292 whole entry): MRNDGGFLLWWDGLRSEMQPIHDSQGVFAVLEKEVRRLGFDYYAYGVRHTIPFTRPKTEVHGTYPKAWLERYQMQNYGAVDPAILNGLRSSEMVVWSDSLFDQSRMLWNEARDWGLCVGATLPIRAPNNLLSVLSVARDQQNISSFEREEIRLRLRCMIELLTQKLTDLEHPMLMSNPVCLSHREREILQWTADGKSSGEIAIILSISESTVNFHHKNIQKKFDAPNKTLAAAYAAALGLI

[4] = target: T1, Transcriptional activator protein LasR; experiment: Inhibition of Pseudomonas aeruginosa PAO-JG21 LasR co-transfected with LVAgfp reporter assessed as inhibition of GFP production by fluorescence based analysis
[5] = target: T3, Transcriptional activator protein LasR (Pseudomonas aeruginosa (strain ATCC 15692 / PAO1 / 1C / PRS 101 / LMG12228)) (UniProt P25084); experiment: Inhibition of Pseudomonas aeruginosa MH602 LasR co-transfected with ASVgfp reporter assessed as inhibition of GFP production at 125 uM by fluorescence based analysis
T3 sequence (whole entry): T1 sequence (P25084 whole entry)

[6] = target: T3, Transcriptional activator protein LasR (Pseudomonas aeruginosa (strain ATCC 15692 / PAO1 / 1C / PRS 101 / LMG12228)); experiment: Inhibition of Pseudomonas aeruginosa MH602 LasR co-transfected with ASVgfp reporter assessed as inhibition of GFP production at 62.5 uM by fluorescence based analysis
[7] = target: T3, Transcriptional activator protein LasR (Pseudomonas aeruginosa (strain ATCC 15692 / PAO1 / 1C / PRS 101 / LMG12228)); experiment: Inhibition of Pseudomonas aeruginosa MH602 LasR co-transfected with ASVgfp reporter assessed as inhibition of GFP production at 250 uM by fluorescence based analysis
[8] = target: T2, HTH-type quorum-sensing regulator RhlR; experiment: Inhibition of Pseudomonas aeruginosa PAO1 RhlR co-transfected with LVAgfp reporter assessed as inhibition of GFP production measured after 12 to 24 hrs by fluorescence based analysis
[9] = target: T1, Transcriptional activator protein LasR; experiment: Inhibition of Pseudomonas aeruginosa PAO1 LasR co-transfected with LVAgfp reporter assessed as inhibition of GFP production measured after 12 to 24 hrs by fluorescence based analysis

Nc1nc2ccccc2[nH]1
IC50 [1]: 399 µM
IC50 [2]: 2.3 µM
IC50 [3]: 285 µM
IC50 [4]: 1.4 µM

O=C(Cn1cc(-c2ccc([N+](=O)[O-])cc2)nn1)Nc1nc2ccccc2[nH]1
inhibition [5]: 67.1%
inhibition [6]: 63.7%
inhibition [7]: 68.2%

Cc1cc2nc(N)[nH]c2cc1C
IC50 [8]: 12.5 µM
IC50 [9]: 37.5 µM
